ChEMBL document CHEMBL1128198, “New drug developments for opportunistic infections in immunosuppressed patients: Pneumocystis carinii” (J Med Chem, 1995)
One block for each compound: values may come before it.

Assays:
Pneumocystis carinii [1] = experiment: Pneumocystis carinii cysts per gram of lung tissue was determined in Pneumocystis carinii expressed as perscent of saline treated- control; type: functional; design: concentration or dose not given beside the values
Pneumocystis carinii [2] = experiment: Toxicity in Pneumocystis carinii Strong activity; type: organism-based; conditions: in vivo
Dihydrofolate reductase [3] = molecular target: T1, Dihydrofolate reductase (Pneumocystis carinii, UniProt P16184)
T1 sequence (P16184 whole entry): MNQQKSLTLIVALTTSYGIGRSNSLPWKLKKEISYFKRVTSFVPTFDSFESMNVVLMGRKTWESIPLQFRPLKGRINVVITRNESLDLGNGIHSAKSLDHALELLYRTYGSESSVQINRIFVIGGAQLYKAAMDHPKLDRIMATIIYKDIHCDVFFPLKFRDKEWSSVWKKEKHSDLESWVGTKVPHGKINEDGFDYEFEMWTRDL
Description: Inhibitory activity was determined against dihydrofolate reductase in Pneumocystis carinii.

Rattus norvegicus [4] = experiment: Evaluated for effectiveness at 10 mg/kg reported as relative to pentamidine in rat; type: functional
Rattus norvegicus [5] = species: Rattus norvegicus; experiment: Toxicity was reported in rat.; type: organism-based; conditions: in vivo
Pneumocystis carinii [6] = experiment: Minimal effective concentration inhibiting growth of Pneumocystis carinii was reported.; type: functional; conditions: read-out: MEC
Dihydrofolate reductase [7] = molecular target: T1, Dihydrofolate reductase; remark: listed apart in the source
Description: Inhibitory activity against dihydrofolate reductase in Pneumocystis carinii at 37 centigrade.

Dihydrofolate reductase [8] = molecular target: T1, Dihydrofolate reductase; remark: listed apart in the source
Rattus norvegicus [9] = species: Rattus norvegicus; experiment: toxicity was reported in rat.; type: organism-based; conditions: in vivo
Dihydrofolate reductase [10] = molecular target: T1, Dihydrofolate reductase; remark: listed apart in the source
Description: Binding affinity was reported with purified recombinant Pneumocystis carinii Dihydrofolate reductase

Dihydrofolate reductase [11] = molecular target: T2, Dihydrofolate reductase (Rattus norvegicus, UniProt Q920D2); experiment: Inhibitory activity against dihydrofolate reductase in rat liver.
T2 sequence (Q920D2 whole entry): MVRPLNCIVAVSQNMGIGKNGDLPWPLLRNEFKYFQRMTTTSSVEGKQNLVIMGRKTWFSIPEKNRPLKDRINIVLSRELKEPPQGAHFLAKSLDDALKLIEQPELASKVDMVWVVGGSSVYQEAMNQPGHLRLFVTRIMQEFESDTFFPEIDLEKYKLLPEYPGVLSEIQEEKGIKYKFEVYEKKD

Rattus norvegicus [12] = species: Rattus norvegicus; experiment: Toxicity was reported in rat; Toxic,; type: organism-based; conditions: in vivo
Rattus norvegicus [13] = species: Rattus norvegicus; experiment: Toxicity was reported in rat; Toxic; type: organism-based; conditions: in vivo
[14] = Ratio for IC50 of mammalian DHFR to IC50 of Pneumocystis carinii DHFR
[15] = Inhibitory activity of Pneumocystis carinii growth culture.
Dihydrofolate reductase [16] = molecular target: T2, Dihydrofolate reductase; experiment: Inhibitory activity against dihydrofolate reductase in rat.

Structure (SMILES): N=C(N)c1ccc2[nH]c(CCCCc3nc4cc(C(=N)N)ccc4[nH]3)nc2c1
Lung cyst count, % of saline control (Pneumocystis carinii [1]): 0.3%
Toxicity (Pneumocystis carinii [2]): Strong activity

IC50 (Dihydrofolate reductase [3]): 0.19 µM
Structure (SMILES): CN(Cc1cnc2cc(N)cc(N)c2n1)c1ccc(C(=O)NC(CCC(=O)O)C(=O)O)c2ccccc12 (stereo not drawn)

Structure (SMILES): COc1cc(C(=N)N)ccc1OCOc1ccc(C(=N)N)cc1OC
Effectiveness (Rattus norvegicus [4]): 1.8
Toxicity (Rattus norvegicus [5]): 0

Structure (SMILES): N=C(N)c1cccc(OCOc2cccc(C(=N)N)c2)c1
Effectiveness (Rattus norvegicus [4]): 0.7
Toxicity (Rattus norvegicus [5]): 0

Structure (SMILES): c1cc(OCCOc2cccc(C3=NCCN3)c2)cc(C2=NCCN2)c1
Effectiveness (Rattus norvegicus [4]): 0.6
Toxicity (Rattus norvegicus [5]): Toxic

IC50 (Dihydrofolate reductase [3]): 120 µM
Structure (SMILES): Nc1nc(N)c2cc(Sc3cccc(C(F)(F)F)c3)sc2n1

IC50 (Dihydrofolate reductase [3]): 10.6 µM
Structure (SMILES): CCc1nc(N)nc(N)c1-c1ccc(Cl)c(NCN(C)C)c1

Structure (SMILES): COc1cc(NC(C)CCCN)c2nc(C)ccc2c1 (stereo not drawn)
minimal effective concentration (Pneumocystis carinii [6]): 0.03 µM

IC50 (Dihydrofolate reductase [7]): > 63 µM
Structure (SMILES): COCCOc1c(OC)cc(Cc2cnc(N)nc2N)cc1OC [TETROXOPRIM]

Structure (SMILES): COc1cc(NCCCCC(C)N)c2nccc(C)c2c1 (stereo not drawn)
minimal effective concentration (Pneumocystis carinii [6]): 0.2 µM

Structure (SMILES): Cc1cc(NS(=O)(=O)c2ccc(N)cc2)no1 [SULFAMETHOXAZOLE]
IC50 (Dihydrofolate reductase [8]): 0.1 µM

IC50 (Dihydrofolate reductase [3]): 1.5 µM
Structure (SMILES): Nc1ccc(S(=O)(=O)c2ccc(N)cc2)cc1 [DAPSONE]

Structure (SMILES): N=C(N)c1ccc(OCCCCOc2ccc(C(=N)N)cc2)cc1
Toxicity (Rattus norvegicus [9]): 0
Effectiveness (Rattus norvegicus [4]): 2.2

IC50 (Dihydrofolate reductase [3]): 9.5 µM
Structure (SMILES): Nc1cc(N)c2nc(CSc3ccccc3)cnc2c1

Ki (Dihydrofolate reductase [10]): 0.0233 µM
IC50 (Dihydrofolate reductase [7]): 0.45 µM
IC50 (Dihydrofolate reductase [11]): 0.11 µM
Structure (SMILES): CC1(C)N=C(N)N=C(N)N1c1ccc(Cl)cc1 [CYCLOGUANIL]

Structure (SMILES): N=C(N)c1ccc2[nH]c(CCCc3nc4cc(C(=N)N)ccc4[nH]3)nc2c1
Lung cyst count, % of saline control (Pneumocystis carinii [1]): 32%

Structure (SMILES): CCCCCCOc1c(OC)cc(NC(C)CCCN)c2nccc(C)c12 (stereo not drawn) [WR-242511]
minimal effective concentration (Pneumocystis carinii [6]): 0.2 µM

Structure (SMILES): N=C(N)c1ccc(OCCCCCOc2ccc(C(=N)N)cc2)cc1 [PENTAMIDINE]
Effectiveness (Rattus norvegicus [4]): 1
Toxicity (Rattus norvegicus [12]): Toxic

IC50 (Dihydrofolate reductase [3]): 0.035 µM
Structure (SMILES): CN(Cc1cnc2nc(N)nc(N)c2n1)c1ccc(C(=O)NC(CCC(=O)NC(CCC(=O)NC(CCC(=O)NC(CCC(=O)O)C(=O)O)C(=O)O)C(=O)O)C(=O)O)cc1 (stereo not drawn)

Structure (SMILES): N=C(N)c1ccc(OCCCOc2ccc(C(=N)N)cc2)cc1 [PROPAMIDINE]
Effectiveness (Rattus norvegicus [4]): 1.2
Toxicity (Rattus norvegicus [13]): Toxic

Ki (Dihydrofolate reductase [10]): 0.0034 µM
IC50 (Dihydrofolate reductase [7]): 3 µM
Selectivity [14]: 44
Structure (SMILES): CCOc1cc(Cc2cnc(N)nc2N)cc(OCC)c1-n1cccc1 [EPIROPRIM]

Structure (SMILES): COc1cc(C2=NCCN2)ccc1OCCCOc1ccc(C2=NCCN2)cc1
Effectiveness (Rattus norvegicus [4]): 1.3
Toxicity (Rattus norvegicus [5]): 0

Structure (SMILES): CCN(CC)CCCCCCNc1cc(OC)cc2c(C)ccnc12 [SITAMAQUINE]
minimal effective concentration (Pneumocystis carinii [6]): 2.3 µM

Structure (SMILES): COc1cc(OCCCCOc2cc(C(=N)N)ccc2OC)cc(C(=N)N)c1
Effectiveness (Rattus norvegicus [4]): 1.2
Toxicity (Rattus norvegicus [5]): 0

Structure (SMILES): N=C(N)c1cccc(OCCCCOc2cccc(C(=N)N)c2)c1
Effectiveness (Rattus norvegicus [4]): 0.6
Toxicity (Rattus norvegicus [5]): 0

Structure (SMILES): N=C(N)c1ccc2[nH]c(CCc3nc4cc(C(=N)N)ccc4[nH]3)nc2c1
Lung cyst count, % of saline control (Pneumocystis carinii [1]): 1%

Structure (SMILES): COc1cc(NC(C)CCCN)c2nccc(C)c2c1 (stereo not drawn)
minimal effective concentration (Pneumocystis carinii [6]): 0.02 µM

Structure (SMILES): c1cc(C2=NCCN2)ccc1OCOc1ccc(C2=NCCN2)cc1
Effectiveness (Rattus norvegicus [4]): 2.4
Toxicity (Rattus norvegicus [5]): 0

Structure (SMILES): N=C(N)c1cc(N)cc(OCCCCOc2cc(C(=N)N)ccc2N)c1
Effectiveness (Rattus norvegicus [4]): 1.1
Toxicity (Rattus norvegicus [5]): 0

Structure (SMILES): CCc1nc(N)nc(N)c1-c1ccc(Cl)c([N+]#N)c1
IC50 (Dihydrofolate reductase [3]): 0.19 µM

Structure (SMILES): c1cc2[nH]c(CCCc3nc4cc(C5=NCCN5)ccc4[nH]3)nc2cc1C1=NCCN1
Lung cyst count, % of saline control (Pneumocystis carinii [1]): 4%

IC50 (Dihydrofolate reductase [3]): 0.006 µM
Structure (SMILES): Nc1nc(N)c2c(ncc3c2ccn3Cc2ccc(Cl)cc2Cl)n1

Structure (SMILES): COc1ccc(C2=NCCN2)cc1OCCCCOc1cccc(C2=NCCN2)c1
Effectiveness (Rattus norvegicus [4]): 1.7
Toxicity (Rattus norvegicus [12]): Toxic

Structure (SMILES): COc1cc(NC(C)CCCN)c2ncccc2c1 (stereo not drawn) [PRIMAQUINE]
minimal effective concentration (Pneumocystis carinii [6]): 0.02 µM

Structure (SMILES): COc1cc(NC(C)CCCN)c2nccc(C)c2c1Oc1cccc(C(F)(F)F)c1 (stereo not drawn)
minimal effective concentration (Pneumocystis carinii [6]): 0.2 µM

Structure (SMILES): N=C(N)c1ccc(OCOc2ccc(C(=N)N)cc2N)c(N)c1
Effectiveness (Rattus norvegicus [4]): 1.1
Toxicity (Rattus norvegicus [5]): 0

IC50 [15]: 5.5 µM
IC50 (Dihydrofolate reductase [16]): 18.9 µM
IC50 (Dihydrofolate reductase [3]): 2.8 µM
Structure (SMILES): CCN=NNc1cc(-c2c(N)nc(N)nc2CC)ccc1Cl

IC50 (Dihydrofolate reductase [3]): 1.2 µM
Structure (SMILES): COc1ccc(OC)c(CCc2sc3nc(N)nc(N)c3c2C)c1

Structure (SMILES): N=C(N)c1ccc2[nH]c(/C=C/c3nc4cc(C(=N)N)ccc4[nH]3)nc2c1
Lung cyst count, % of saline control (Pneumocystis carinii [1]): 3%

Structure (SMILES): COc1cc(C)c2c(Oc3cccc(C(F)(F)F)c3)c(OC)cc(NC(C)CCCN)c2n1 (stereo not drawn) [TAFENOQUINE]
minimal effective concentration (Pneumocystis carinii [6]): 0.2 µM

Structure (SMILES): c1cc2[nH]c(CCCCc3nc4cc(C5=NCCN5)ccc4[nH]3)nc2cc1C1=NCCN1
Lung cyst count, % of saline control (Pneumocystis carinii [1]): 0.1%
Toxicity (Pneumocystis carinii [2]): Strong activity

IC50 (Dihydrofolate reductase [3]): 3.1 µM
Structure (SMILES): COc1cc(Cn2ccc3c4c(N)nc(N)nc4nc(O)c32)cc(OC)c1OC
